Earlier results, collected in article PMC10443619 (ACS chemical biology, 2023).

Columns and labels:
tau [1] = settings: compared with YM-01
tau [2] = system: tau
tau [3] = settings: compared with MKT-077
[4] = not given; remark: listed apart in the source

Row | Substance | potency to prevent cellular tau accumulation (tau [1]) | total tau in organotypic brain slices (tau [2]; rTg4510 mice) | half-life (t1/2) [min] | potency to prevent tau accumulation in HeLaC3 cells (tau [3]) | pathogenic tau in ex vivo brain slices (tau [2]; transgenic rTg4510 mice) | blood-brain permeability [4]
1 | JG-98 | greater potency to prevent cellular tau accumulation than YM-01 | reduced total tau | 37 |  |  | 
2 | YM-01 |  |  |  | enhanced the potency to prevent tau accumulation | reduced pathogenic tau | lacked detectable blood-brain permeability
